Experimental data taken from patent US20220324803A1 (Teon Therapeutics, Inc., priority 2019, published 2022).

Columns and labels:
[1] = molecular target: T1, human Prostanoid EP4 Receptor (EP4) (Homo sapiens, UniProt P35408); assay: Prostanoid EP4 binding assay (3H-prostaglandin E2 displacement, cell membranes); details: HEK293 cell membranes with human EP4, 3H-prostaglandin E2, 24° C.
T1 construct: expressed in transfected cells; host or cells: HEK293 (G418 selection); membranes prepared by differential centrifugation
T1 sequence (P35408 whole entry): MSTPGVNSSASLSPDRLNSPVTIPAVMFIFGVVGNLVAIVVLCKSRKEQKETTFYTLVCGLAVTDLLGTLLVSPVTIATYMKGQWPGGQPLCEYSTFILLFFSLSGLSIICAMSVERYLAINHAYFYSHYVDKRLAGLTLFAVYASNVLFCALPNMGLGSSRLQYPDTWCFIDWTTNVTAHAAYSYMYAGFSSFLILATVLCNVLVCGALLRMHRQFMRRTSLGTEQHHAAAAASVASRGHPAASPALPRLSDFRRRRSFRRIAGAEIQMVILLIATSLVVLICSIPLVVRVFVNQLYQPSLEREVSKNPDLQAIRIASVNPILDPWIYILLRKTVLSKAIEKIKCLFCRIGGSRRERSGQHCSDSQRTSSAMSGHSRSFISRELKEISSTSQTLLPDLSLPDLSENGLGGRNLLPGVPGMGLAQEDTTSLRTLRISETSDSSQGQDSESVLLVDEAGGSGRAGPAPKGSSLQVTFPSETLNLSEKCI
Protocol: HEK293 cells transfected with human Prostanoid EP4 Receptor (EP4) are maintained in DMEM supplemented with L-Glutamine, 10% FBS and 300 μg/ml G418. Cells are harvested and membranes prepared by differential centrifugation, following lysis of the cells in the presence of protease inhibitors, for use in the receptor binding assay. EP4 binding assay is performed in 50 mM HEPES pH7.4, 5 mM MgCl2, 1 mM CaCl2) and 0.2% BSA. Testing compounds are diluted with DMSO to make 8-point 4-fold serial dilution. Cell membrane homogenates are incubated at 24° C. with ^3H-prostaglandin E2 in the absence or presence of the testing compound in assay buffer. Nonspecific binding (Low control: LC) and total binding (High control: HC) are determined in the presence or absence of saturated cold ligand Prostaglandin E2 (PGE2). Specific binding is calculated by subtracting nonspecific binding from total binding. When binding assays are completed, the reaction mixture is filtered rapidly under vacuum through glass fiber filters (GF/C, Packard) presoaked with 0.5% BSA for at least 0.5 hour at room temperature and then washed for 4 times with cold wash buffer (50 mM HEPES pH7.4, 500 mM NaCl, 0.1% BSA) using a 96-sample Perkin Elmer Filtermate Harvester (Unifilter, Packard). The filters are dried for 1 hour at 50 degrees then counted for radioactivity in a scintillation counter using Perkin Elmer Microscint 20 cocktail. ^3H trapped on filter is counted using Perkin Elmer MicroBeta2 Reader. Inhibition is calculated using following equation: % Inhibition=(1−(Assay well−Average_LC)/(Average_HC−Average_LC))×100%. The results are expressed as a percent inhibition of the control radioligand specific binding. Data are analyzed and IC50 is calculated using GraphPad Prism 5 and the model “log(inhibitor) vs. response—Variable slope”. The binding affinity of the compounds is determined by using the Cheng and Prusoff equation Ki=IC50/(1+[radioligand]/Kd).

[2] = molecular target: T1, human Prostanoid EP4 Receptor (EP4); assay: Prostanoid EP4 FLIPR assay (calcium flux, PGE2 addition); type: cell-based; details: HEK293 cells transfected with human EP4, Fluo-4 calcium dye
Protocol: (§1) HEK293 cells transfected with human Prostanoid EP4 Receptor (EP4) or CHO cells transfected with human Prostanoid EP2 Receptor (EP2) are maintained in DMEM supplemented with L-Glutamine, 10% FBS and 300 μg/ml G418. Cells are plated at 20,000 cells/well in black 384-well Poly-D-Lysine protein coating plate and incubated at 37° C., 5% CO2 for 24 h. Prior to the assay, calcium-sensitive dye Fluo-4 Direct™ (Molecular Devices) is reconstituted according to manufacturer instructions. The reconstituted dye was diluted in assay buffer (1× HBSS, 20 mM HEPES, and 2.5 mM Probenicid, pH 7.4). Growth media is removed and 20 μl of this diluted dye is added to each well at a final concentration of 2 μM. Plates are incubated for 50 min at 37° C. 5% C02 and 10 min at RT after dye addition. Testing compounds are diluted with DMSO to make 10-point 4-fold serial dilution. After the pre-treatment incubation, fluorescence intensity is measured on a FlexStation II fluorometric imaging plate reader (Molecular Devices). Relative fluorescence units (RFU) are measured before (20 readings) and after (40 readings) the PGE2 addition for a total 60 sec read time (Excitation=485 nm, Emission=525 nm). Data are analyzed and IC50 is calculated using GraphPad Prism 5 and the model “log(inhibitor) vs. response—Variable slope”.
(§2) Illustrative data for representative compounds are described in Table 2.

[3] = molecular target: T2, human Prostanoid EP2 Receptor (EP2) (Homo sapiens, UniProt P43116); assay: Prostanoid EP2 FLIPR assay (calcium flux, PGE2 addition); type: cell-based; details: CHO cells transfected with human EP2, Fluo-4 calcium dye
T2 construct: expressed in transfected cells; host or cells: CHO (G418 selection)
T2 sequence (P43116 whole entry): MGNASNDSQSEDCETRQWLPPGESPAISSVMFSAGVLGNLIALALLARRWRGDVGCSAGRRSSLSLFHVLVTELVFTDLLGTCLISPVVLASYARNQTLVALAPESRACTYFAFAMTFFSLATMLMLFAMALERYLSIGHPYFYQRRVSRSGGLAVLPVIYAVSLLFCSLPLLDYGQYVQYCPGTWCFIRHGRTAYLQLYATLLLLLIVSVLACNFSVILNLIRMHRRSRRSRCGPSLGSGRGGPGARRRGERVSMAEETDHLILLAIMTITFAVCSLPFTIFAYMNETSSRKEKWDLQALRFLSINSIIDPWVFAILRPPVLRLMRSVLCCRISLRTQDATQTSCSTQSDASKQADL
Protocol: as §1, §2

human NSCLC = details: in vitro; cited from earlier work
[4] = system: murine mammary tumour cells; details: mouse, in vivo; cited from earlier work
[5] = system: human inflammatory breast cancer cells; details: Robertson et al. 2008; cited from earlier work
[6] = system: aberrant crypt foci and intestinal polyps; details: mouse disease model; Mutoh et al. 2002; cited from earlier work
[7] = system: castration-resistant prostate cancer; details: mouse xenograft disease model; Terada et al. 2010; cited from earlier work

| SMILES | Ki [1] | IC50 [2] | IC50 [3] | further results |
| --- | --- | --- | --- | --- |
| O=C(N[C@H]1CC2(C1)C[C@H](C(=O)O)C2)c1cnn2cccc(Cc3ccc(C(F)(F)F)cc3)c12 (single isomer, unassigned) [Compound 14A, cis-6-[[4-[[4-(trifluoromethyl)phenyl]methyl]pyrazolo[1,5-a]pyridine-3-carbonyl]amino]spiro[3.3]heptane-2-carboxylic acid] | 100 to 499 nM | 100 to 499 nM | > 1000 nM | – |
| O=C(N[C@H]1CC2(C1)C[C@H](C(=O)O)C2)c1cnn2cccc(Cc3ccc(C(F)(F)F)cc3)c12 (single isomer, unassigned) [Compound 14B, trans-2-[[4-[[4-(trifluoromethyl)phenyl]methyl]pyrazolo[1,5-a]pyridine-3-carbonyl]amino]spiro[3.3]heptane-6-carboxylic acid] | < 100 nM | < 100 nM | > 1000 nM | – |
| O=C(O)CC/C=C\CC[C@H]1[C@H](N2CCOCC2)C(=O)C[C@H]1OCc1ccc(-c2ccccc2)cc1 [AH-23848] | – | – | – | tumorigenic effects of PGE2 on human NSCLC growth (human NSCLC): successfully inhibited; metastasis of murine mammary tumour cells [4]: reduced metastasis |
| C[C@H](NC(=O)c1cnn2cccc(Cc3ccc(C(F)(F)F)cc3)c12)c1ccc(C(=O)O)cc1 [Compound 1, 4-[(1S)-1-[[4-[[4-(trifluoromethyl)phenyl]methyl]pyrazolo[1,5-a]pyridine-3-carbonyl]amino]ethyl]benzoic acid] | < 100 nM | < 100 nM | > 1000 nM | – |
| O=C(NC1CC2(C1)CC(C(=O)O)C2)c1cnn2cccc(Cc3ccc(C(F)(F)F)cc3)c12 (stereo not drawn) [Compound 2, 2-[[4-[[4-(trifluoromethyl)phenyl]methyl]pyrazolo[1,5-a]pyridine-3-carbonyl]amino]spiro[3.3]heptane-6-carboxylic acid] | < 100 nM | < 100 nM | > 1000 nM | – |
| C[C@H](NC(=O)c1cnn2cccc(Cc3cccc(C(F)(F)F)c3)c12)c1ccc(C(=O)O)cc1 [Compound 3, 4-[(1S)-1-[[4-[[3-(trifluoromethyl)phenyl]methyl]pyrazolo[1,5-a]pyridine-3-carbonyl]amino]ethyl]benzoic acid] | < 100 nM | < 100 nM | > 1000 nM | – |
| O=C(NC1CC2(C1)CC(C(=O)O)C2)c1cnn2cccc(Cc3cccc(C(F)(F)F)c3)c12 (stereo not drawn) [Compound 4, 2-[[4-[[3-(trifluoromethyl)phenyl]methyl]pyrazolo[1,5-a]pyridine-3-carbonyl]amino]spiro[3.3]heptane-6-carboxylic acid] | < 100 nM | < 100 nM | > 1000 nM | – |
| C[C@H](NC(=O)c1n[nH]c2cccc(Cc3ccc(C(F)(F)F)cc3)c12)c1ccc(C(=O)O)cc1 [Compound 7, 4-[(1S)-1-[[4-[[4-(trifluoromethyl)phenyl]methyl]-1H-indazole-3-carbonyl]amino]ethyl]benzoic acid] | < 100 nM | < 100 nM | > 1000 nM | – |
| O=C(NC1CC2(C1)CC(C(=O)O)C2)c1n[nH]c2cccc(Cc3ccc(C(F)(F)F)cc3)c12 (stereo not drawn) [Compound 8, 2-[[4-[[4-(trifluoromethyl)phenyl]methyl]-1H-indazole-3-carbonyl]amino]spiro[3.3]heptane-6-carboxylic acid] | < 100 nM | < 100 nM | > 1000 nM | – |
| CCn1nc(C(=O)N[C@@H](C)c2ccc(C(=O)O)cc2)c2c(Cc3ccc(C(F)(F)F)cc3)cccc21 [Compound 9, 4-[(1S)-1-[[1-ethyl-4-[[4-(trifluoromethyl)phenyl]methyl]indazole-3-carbonyl]amino]ethyl]benzoic acid] | < 100 nM | < 100 nM | > 1000 nM | – |
| CCn1nc2cccc(Cc3ccc(C(F)(F)F)cc3)c2c1C(=O)N[C@@H](C)c1ccc(C(=O)O)cc1 [Compound 10, 4-[(1S)-1-[[2-ethyl-4-[[4-(trifluoromethyl)phenyl]methyl]indazole-3-carbonyl]amino]ethyl]benzoic acid] | 100 to 499 nM | < 100 nM | > 1000 nM | – |
| C[C@H](NC(=O)c1cnn2cccc(Cc3cc4ccccc4cn3)c12)c1ccc(C(=O)O)cc1 [Compound 12, 4-[(1S)-1-[[4-(3-isoquinolylmethyl)pyrazolo[1,5-a]pyridine-3-carbonyl]amino]ethyl]benzoic acid] | < 100 nM | < 100 nM | > 1000 nM | – |
| O=C(O)CC12CC(NC(=O)c3cnn4cccc(Cc5ccc(C(F)(F)F)cc5)c34)(C1)C2 [Compound 15, 2-[3-[[4-[[4-(trifluoromethyl)phenyl]methyl]pyrazolo[1,5-a]pyridine-3-carbonyl]amino]-1-bicyclo[1.1.1]pentanyl]acetic acid] | < 100 nM | < 100 nM | > 1000 nM | – |
| CCOc1c2c(c(OCC)c3ccccc13)C(=O)N(c1ccc(CC(=O)NS(=O)(=O)c3ccccc3)cc1)C2 [GW-627368X] | – | – | – | proliferation and invasion of human inflammatory breast cancer cells [5]: selectively inhibited both proliferation and invasion |
| CC(C(=O)Nc1ccccc1Cc1ccccc1C(=O)O)c1cccc2ccccc12 (stereo not drawn) [ONO-AE2-227] | – | – | – | formation of aberrant crypt foci and intestinal polyps [6]: reduced the formation of aberrant crypt foci and intestinal polyps |
| CC(C(=O)Nc1cc(C#N)ccc1CCCC(=O)O)c1ccc(F)c2ccccc12 (stereo not drawn) [ONO-AE3-208] | – | – | – | castration-resistant prostate cancer progression [7]: suppressed castration-resistant prostate cancer progression; metastasis of murine mammary tumour cells [4]: reduced metastasis |
